In patent EP0235408B1, “Pharmaceutical composition and treatment” (THE UNIVERSITY OF TORONTO I[…], priority 1986, dated 1987):
Where “and” joins values, the source holds several entries; their conditions need not be identical. Equal entries are not always repeated. Structures can show the parent of a compound that is named as a salt. Marks after values point to notes of the source that are not given here.

Key:
laboratory rats [1] = assay: Drug-induced sleep tracked by electroencephalograph (Example 4); type: in vivo; settings: for induced sleep (duration): 500 mg per kilogram, EEG
Method: The preferred compound according to the invention was administered to labotatory rats, and the sleep of the animals induced by the drug was tracked by means of an electroencephalograph.
Compound ethyl 4-acetoxybutanoate, administered by mouth at a dosage of 250 mg per kilogram body weight induced sleep for 1 hour 28 minutes. At a dosage of 500 mg per kilogram administered in one case by mouth and in another case intraperitoneally, sleep was induced for 4 hours.
The administration to a similar laboratory rat, intraperitoneally, of a dosage of 500 mg per kilogram body weight of GHB induced sleep for only 1 hour 59 minutes, by contrast.

laboratory rats [2] = assay: Effects on sleep and righting time, oral administration (Example 5); type: in vivo; settings: 10 mM/kg body weight; for TIME SLEPT (mins) AVG 1: average based only on the animals which slept
Method: The effects on sleep and- righting time of the oral and in traperitoneal administration of the prior art compound hydroxybutyrate sodium salt (GHB) and 4-acetoxybutanoate (EAB) according to the invention were determined, using groups of labotatory rats.
In a first experiment, GHB was administered at high dosage level (25 mM/Kg or 3 g/kg body weight) orally to three animals. […] The most likely reason is that oral GHB is poorly absorbed.
In a second experiment each of GHB and EAB was given to separate groups of twelve and eleven animals respectively, by oral administration at the same, lower dosage level of 10 mM/kg body weight.

[3] = Toxicity in animal models; settings: rat, in vivo; laboratory rats; read-out: dose required before a toxic level is reached
Method: In tests conducted in animal models, the compound ethyl 4-acetoxybutanoate has evidenced extremely low levels of toxicity. In tests conducted with laboratory rats as reported below, doses as high as 3000 mg per kilogram body weight are required, before a toxic level is reached.

rats = assay: Effects on sleep and righting time, intraperitoneal administration (Example 6); settings: 5 mM/kg body weight; for TIME SLEPT (mins) AVG 1: average based only on the animals which slept; for TIME SLEPT (mins): individual animals, asterisk = animal could be placed on its back for the time indicated, DNS = did not sleep
[4] = 250 or 500 mg per kilogram, by mouth or intraperitoneally
[5] = individual animals, asterisk = animal could be placed on its back for the time indicated, DNS = did not sleep
[6] = average of all the rats, whether they slept or not

CCOC(=O)CCCOC(C)=O [EAB, ethyl 4-acetoxybutanoate]
ill effects upon waking (laboratory rats [1]; [4]): none of the animals exhibited ill effects
muscle relaxation during sleep (laboratory rats [1]; [4]): the limbs and other body joints were quite flaccid
induced sleep (duration) (laboratory rats [1]; by mouth): 4 h
induced sleep (duration) (laboratory rats [1]; intraperitoneally): 4 h
TIME SLEPT (mins) RANGE (laboratory rats [2]): 103.9 to 331.6 min
animals put to sleep (laboratory rats [2]): put all rats to sleep
animals that could be placed on their backs (laboratory rats [2]): four of eleven could be placed on their backs for more than five hours
ill effects upon waking (laboratory rats [2]): none of the animals exhibited any ill effects
muscle relaxation during sleep (laboratory rats [2]): loose and flaccid
sign of toxicity (laboratory rats [2]): No sign of toxicity was observed
TIME SLEPT (mins) AVG 1 (laboratory rats [2]): 170.57 min
TIME SLEPT (laboratory rats [2]; [5]): 103.90 min and 120.30 min and 106.10 min and 125.75 min and 143.45 min and 120.00 min and 175.80 min
TIME SLEPT (mins) (laboratory rats [2]; [5]): 331.60* mins and 311.50* mins and 317.65* mins and 300.20* mins
NOAEL [3]: ≥ 3000 mg/kg
TIME SLEPT (mins) RANGE (rats): 39.30 to 259.00 min
ill effects upon waking (rats): none of them showed any ill effects
muscle relaxation during sleep (rats): exhibited a high degree of muscle relaxation
TIME SLEPT (mins) AVG 1 (rats): 126.89 min
TIME SLEPT (mins) (rats): 51.70* mins and 39.30* mins and 199.65* mins and 141.70* mins and 70.00* mins and 259.00* mins

O=C(O)CCCO [GHB, hydroxybutyrate sodium salt, reference compound]
TIME SLEPT (mins) RANGE (laboratory rats [2]): 0 to 74.7 min
TIME SLEPT (mins) AVG 1 (laboratory rats [2]): 65.76 min
TIME SLEPT (mins) AVG 2 (laboratory rats [2]; [6]): 27.40 min
TIME SLEPT (laboratory rats [2]; individual animals, asterisk = animal could be placed on its back for the time indicated, DNS = did not sleep, sodium salt): 72.80 min and 64.70 min and 60.80 min and 55.80 min and 74.70 min
TIME SLEPT (mins) RANGE (rats): 0 to 87.35 min
TIME SLEPT (mins) AVG 1 (rats): 72.04 min
TIME SLEPT (mins) AVG 2 (rats; [6]): 48.03 min
TIME SLEPT (mins) (rats; sodium salt): 70.20* mins and 55.40* mins and 75.20* mins and 87.35* mins
